Patent US20110046107A1, “SULFONYL-SUBSTITUTED CARBAPENEM COMPOUNDS” (priority 2007, published 2011)
Values after ≈ are worked out from the molar mass of the structure shown. Like-named read-outs stand apart in the source and are kept apart here.

How the values were obtained:
[1] = test system: penicillin-resistant streptococcus pneumoniae (PRSP); assay: In vitro antibacterial activity, agar dilution method (clinical isolates); format: cell-based; settings: clinically isolated strains, Gram-positive, read-out: MIC90 S. pneumoniae PRSP
From the text: (§1) Bacterial strains for test: All the bacterial strains are clinical isolates and purchased from public organizations. methicillin-sensitive staphylococcus aureus (MS SA), methicillin-resistant staphylococcus aureus (MRSA), methicillin-sensitive staphylococcus epidermidis (MSSE), methicillin-resistant staphylococcus epidermidis (MRSE), streptococcus pyogenes, penicillin-sensitive streptococcus pneumoniae (PSSP), penicillin-resistant streptococcus pneumoniae (PRSP), Escherichia coli, Citrobacter freundii, Enterobacter cloacae, Hemophilus influenza, Klebsiella pneumonia (producing ESBL), Morganella morganii, Proteus mirabilis, Serratia marcescens, and Pseudomonas aeruginosa.
(§2) Drugs to be tested: compounds of the invention prepared in the examples; the chemical names, structural formulae, preparation materials, and preparation methods are provided in the preparation examples of the compounds;
(§3) Meropenem (Meropenem for injection), Ertapenem (Ertapenem for injection), and Doripenem (Doripenem for injection) commercially available
(§4) Experimental method: the agar dilution method, by reference to Methodology of Pharmacological Experiment (XU Shuyun et al, published by the Peoples Medical Publishing House, 1st Edition, August, 1982; 3rd Edition, 5th printing, January 2002, p 1659-1660).

Serratia marcescens = assay: as above; format: cell-based; settings: read-out: MIC90 Serratia marcescens
From the text: as §1, §2, §3, §4

Citrobacter freundii = assay: as above; format: cell-based; settings: clinically isolated strains, Gram-negative
From the text: as §1, §2, §3, §4

[2] = test system: methicillin-sensitive staphylococcus epidermidis (MSSE); assay: as above; format: cell-based; settings: read-out: MIC90 S. epidermidis MSSE
From the text: as §1, §2, §3, §4

Pseudomonas aeruginosa = assay: as above; format: cell-based; settings: clinically isolated strains, Gram-negative
From the text: as §1, §2, §3, §4

Proteus mirabilis = assay: as above; format: cell-based; settings: clinically isolated strains, Gram-negative, agar dilution, read-out: MIC90 Proteus mirabilis
From the text: as §1, §2, §3, §4

Escherichia coli = assay: as above; format: cell-based; settings: clinically isolated strains, Gram-negative, read-out: MIC90 E. coli
From the text: as §1, §2, §3, §4

[3] = test system: penicillin-sensitive streptococcus pneumoniae (PSSP); assay: as above; format: cell-based; settings: clinically isolated strains, Gram-positive, read-out: MIC90 S. pneumoniae PSSP
From the text: as §1, §2, §3, §4

[4] = test system: methicillin-resistant staphylococcus aureus (MRSA); assay: as above; format: cell-based; settings: clinically isolated strains, Gram-positive, read-out: MIC90 S. aureus MRSA
From the text: as §1, §2, §3, §4

Morganella morganii = assay: as above; format: cell-based; settings: clinically isolated strains, Gram-negative
From the text: as §1, §2, §3, §4

streptococcus pyogenes = assay: as above; format: cell-based; settings: clinically isolated strains, Gram-positive, read-out: MIC90 S. pyogenes
From the text: as §1, §2, §3, §4

Enterobacter cloacae = assay: as above; format: cell-based; settings: read-out: MIC90 Enterobacter cloacae
From the text: as §1, §2, §3, §4

[5] = test system: methicillin-resistant staphylococcus epidermidis (MRSE); assay: as above; format: cell-based; settings: clinically isolated strains, Gram-positive, read-out: MIC90 S. epidermidis MRSE
From the text: as §1, §2, §3, §4

[6] = test system: methicillin-sensitive staphylococcus aureus (MSSA); assay: as above; format: cell-based; settings: read-out: MIC90 S. aureus MSSA
From the text: as §1, §2, §3, §4

Hemophilus influenza = assay: as above; format: cell-based; settings: clinically isolated strains, Gram-negative, agar dilution; read-out: MIC90 Hemophilus influenza
From the text: as §1, §2, §3, §4

[7] = test system: Klebsiella pneumonia (producing ESBL); assay: as above; format: cell-based; settings: Klebsiella pneumoniae; clinically isolated strains (producing ESBL), Gram-negative, agar dilution; read-out: MIC90 Klebsiella pneumonia
From the text: as §1, §2, §3, §4

[8] = Pharmacokinetic study of the compounds in SD rat (intravenous injection); format: in vivo, SD male rats; settings: SD male rats, intravenous injection 10 mg/kg, plasma, X ± SD, n = 3, read-out: t1/2 (half lives) (converted)
Protocol: Test drugs: the compound 1, 6, 8 and 9 prepared in the examples
Control drugs: Meropenem (Meropenem for injection), commercially available; Doripenem (Doripenem for Injection).
Internal standard substance: Warfarin, a white powder, purity 99%, batch number: 0072-8501, provided by Shanghai Institute for Drug Control.
Drug formulation: the test drugs were formulated before use by being dissolved in physiological saline to make a final concentration of 5 mg/mL for intravenous injection.
Test animal: SD male rats, weight: 200˜250 g, purchased from SHANGHAI SLAC LABORATORY ANIMAL CO. LTD.
Drug administration: The SD male rats were randomly divided into five groups with 3 in each group, and given the drugs by intravenous injection at a dose of 10 mg/kg. The animals were weighed before administration.
Collection of Samples: Zero time was marked before administration; 0.5 mL of blood was respectively sampled from orbit venous plexus at 5 min, 15 min, 30 min, 45 min, 1 h, 2 h, 4 h, 6 h, 8 h, 24 h after administration into heparinized centrifuge tubes. The samples were centrifuged for 6 minutes at 8000 rpm and the supernatant plasma was separated. The plasma was frozen at −20° C. for LC-MS/MS analysis.
Chromatographic conditions: column: Gemini C6-Phenyl (50 mm×4.6 mm, 5 μm); mobile phase: 0.1% of formic acid-water-acetonitrile (5:35:60, v/v/v); flow rate: 1 mL/min; column temperature: 35-40° C.; injection volume: 5 μL; split ratio: 1/5.
Mass spectrometer conditions: scanning mode: cation multiple reactions monitoring (MRM); ion source: electrospray ionization (ESI); Nebulize gas: 8 L/min; Curtain gas: 8 L/min; Collision gas: 4 L/min; Ionspray voltage: 4500 v; Temperature: 400° C./500° C.
Preparation of the Standard Curve and Quality-Control Sample: a Suitable Amount of the test drug was weighed precisely and then formulated into a stock solution (2.6 mg/mL) with ultrapure water. The stock solution was diluted with methanol to obtain a series of working solutions in a concentration of 25000, 5000, 2500, 500, 250 and 50 ng/mL, respectively. 100 μL of plasma samples were separately added into 20 μL of said working solutions to obtain the calibration solutions in a concentration of 5000, 1000, 500, 100, 50 and 10 ng/mL. By the same method, the quality-controlled sample solutions in a concentration of 4000, 800 and 20 ng/mL can be prepared. A standard curve was obtained by chromatographic analysis of the samples.
Sample preparation: 20 μL of acetonitrile and 200 μL (200 ng/mL) of Warfarin in acetonitrile were added into 100 μL of plasma sample, then spun for 1 minute and centrifuged for 5 minutes at 15000 rpm. 100 μL of the supernatant was taken, where 3 μL aliquot of the supernatant was used for the LC/MS/MS analysis.
Dosing concentration: The accuracy of the drug concentration in dosing solution for intravenous injection was 103.2%, determined by analysis of the formulated drugs using HPLC and comparison with the standards.
Data analysis: The drug concentration in plasma would be considered as zero if under the detection limit (10 ng/mL). The pharmacokinetics parameters were calculated by the non-compartment model using Winnonlin Professional 5.2 pharmacokinetics software.
Pharmacokinetics: The pharmacokinetics parameters and drug concentration-time curve were obtained by measuring the plasma drug concentration at different time points.

[9] = cited from earlier work
[10] = clinically isolated strains, Gram-negative, agar dilution
[11] = clinically isolated strains, Gram-positive, agar dilution

Row | Compound | MIC90 [1] [µg/mL] | MIC90 (Serratia marcescens; [10]) [µg/mL] | MIC90 (Citrobacter freundii) [µg/mL] | MIC90 [2, 11] [µg/mL] | MIC90 (Pseudomonas aeruginosa) [µg/mL] | MIC90 (Proteus mirabilis) [µg/mL] | MIC90 (Escherichia coli) [µg/mL] | MIC90 [3] [µg/mL] | MIC90 [4] [µg/mL] | MIC90 (Morganella morganii) [µg/mL] | MIC90 (streptococcus pyogenes) [µg/mL] | MIC90 (Enterobacter cloacae; [10]) [µg/mL] | MIC90 [5] [µg/mL] | MIC90 [6, 11] [µg/mL] | MIC90 (Hemophilus influenza) [µg/mL] | MIC90 [7] [µg/mL] | half-life ([8]; in vivo) [min] | also measured
1 | C[C@@H](O)[C@H]1C(=O)N2C(C(=O)O)=C(SC3CN(S(=O)(=O)N(C)C)C3)[C@H](C)[C@H]12 [Compound 6, (4R,5S,6S)-3-[1-(N,N-dimethylaminosulfonyl)-azetidin-3-yl]-thio-6-[(1R)-1-hydroxyethyl]-4-methyl-7-oxo-1-aza-bicyclo-[3.2.0]hept-2-ene-2-carboxylic acid] | 1 (≈ 2.47 µM) | 0.063 (≈ 0.155 µM) | 0.063 (≈ 0.155 µM) | 0.063 (≈ 0.155 µM) | 16 (≈ 39.5 µM) | 0.063 (≈ 0.155 µM) | 0.016 (≈ 0.0395 µM) | 0.004 (≈ 0.00986 µM) | 8 (≈ 19.7 µM) | 0.063 (≈ 0.155 µM) | 0.008 (≈ 0.0197 µM) | 0.25 (≈ 0.617 µM) | 16 (≈ 39.5 µM) | 0.063 (≈ 0.155 µM) | 0.25 (≈ 0.617 µM) | 0.125 (≈ 0.308 µM) | 18 ± 1.8 | –
2 | C[C@@H](O)[C@H]1C(=O)N2C(C(=O)O)=C(S[C@@H]3CN[C@H](C(=O)N(C)C)C3)[C@H](C)[C@H]12 [meropenem, Meropenem, reference compound] | 1 (≈ 2.61 µM) | 0.125 (≈ 0.326 µM) | 0.063 (≈ 0.164 µM) | 0.25 (≈ 0.652 µM) | 16 (≈ 41.7 µM) | 0.125 (≈ 0.326 µM) | 0.032 (≈ 0.0834 µM) | 0.016 (≈ 0.0417 µM) | 64 (≈ 167 µM) | 0.063 (≈ 0.164 µM) | 0.008 (≈ 0.0209 µM) | 1 (≈ 2.61 µM) | 32 (≈ 83.4 µM) | 0.25 (≈ 0.652 µM) | 0.25 (≈ 0.652 µM) | 0.5 (≈ 1.3 µM) | – | half-lives in human body [9]: about 1 h; half-life [8]: 7.2 ± 0.6 min
3 | CCCCN(CCCC)S(=O)(=O)N1CC(SC2=C(C(=O)O)N3C(=O)[C@H]([C@@H](C)O)[C@H]3[C@H]2C)C1 [Compound 8, (4R,5S,6S)-3-[1-(N,N-dibutylaminosulfonyl)-azetidin-3-yl]thio-6-[(1R)-1-hydroxyethyl]-4-methyl-7-oxo-1-aza-bicyclo-[3.2.0]hept-2-ene-2-carboxylic acid] | 1 (≈ 2.04 µM) | – | 0.016 (≈ 0.0327 µM) | – | 8 (≈ 16.3 µM) | 0.063 (≈ 0.129 µM) | 0.016 (≈ 0.0327 µM) | 0.004 (≈ 0.00817 µM) | 8 (≈ 16.3 µM) | 0.032 (≈ 0.0654 µM) | 0.004 (≈ 0.00817 µM) | – | 8 (≈ 16.3 µM) | – | 0.125 (≈ 0.255 µM) | 0.032 (≈ 0.0654 µM) | 16.2 ± 1.8 | MIC90 (Serratia marcescens): 0.125 µg/mL (≈ 0.255 µM); MIC90 [2]: 0.125 µg/mL (≈ 0.255 µM); MIC90 (Enterobacter cloacae): 0.125 µg/mL (≈ 0.255 µM); MIC90 [6]: 0.125 µg/mL (≈ 0.255 µM)
